Experimental data as given in patent publication US20260234136A1, “ISOXAZOLIDINES AS RIPK1 INHIBITORS AND USE THEREOF” (GENZYME CORPORATION, priority 2023, published 2026).

System: U937 cells
Assay: Cellular assay in U937 cells to measure the activity of RIPK1-inhibitors on cell death (necroptosis)
Format: cell-based
Conditions: Homo sapiens, U-937, 50 μM zVAD.fmk and 100 ng/ml recombinant human TNFα, overnight (18 to 24 hrs), MTS readout
Experimental: Absorbance of formazan was read at 490 nm. The inhibitory activity of the test compound was quantified in a concentration response curve (CRC) experiment.
Compounds were obtained as 10 mM stock solutions and were diluted 1 to 10 volumes with DMSO to yield a 1 mM solution. From this solution 2 μl were diluted with 998 μl growth medium.
U937 cells were cultured in RPMI1640 Glutamax and 10% heat inactivated FBS. […] 50 μl of compound dilutions, as described in Cellular assay in U937 cells, were added and the cell suspension incubated overnight (18 to 24 hrs) at 37° C., 5% CO2 in a humidified atmosphere (95% rH).
CellTiter 96 Aqueous reagent was mixed (100 μl PMS (phenazine methosulfate) solution/2 ml MTS (3-(4,5-[…])-5-(3-carboxymethoxyphenyl)-2-(4-sulfophenyl)-2H-tetrazolium, inner salt) solution) and 20 μl were added per well. After 4 hrs incubation at 37° C. (5% CO2 95% rH) optical density was measured at 490 nm on a microplate reader (Tecan Infinite M1000).
The % inhibition is expressed as percentage of the maximal inhibition value obtained in the absence of TNFα/zVAD.fmc.

SMILES	IC50 [nM]
Cc1ncc([C@@H]2CCON2C(=O)C2CCN(c3nccc(C4CCO4)n3)CC2)cc1F (single isomer, unassigned) [Example 98]	269
O=C(C1CCN(c2cc(-c3cccnc3)ncn2)CC1)N1OCC[C@H]1c1cncc(F)c1 [Example 1, (S)-(3-(5-fluoropyridin-3-yl)isoxazolidin-2-yl)(1-(6-(pyridin-3-yl)pyrimidin-4-yl)piperidin-4-yl)methanone]	37
O=C1OCCN1c1nc(N2CCC(C(=O)N3OCC[C@H]3c3cnccn3)CC2)ncc1F [Example 5, 3-[5-fluoro-2-[4-[(3S)-3-pyrazin-2-ylisoxazolidine-2-carbonyl]-1-piperidyl]pyrimidin-4-yl]oxazolidin-2-one]	5
Cc1nc([C@@H]2CCON2C(=O)C2CCN(c3cc(-n4ccnc4C)ncn3)CC2)cs1 [Example 7, [1-[6-(2-methylimidazol-1-yl)pyrimidin-4-yl]-4-piperidyl]-[(3S)-3-(2-methylthiazol-4-yl)isoxazolidin-2-yl]methanone]	9
Cc1ccc([C@@H]2CCON2C(=O)C2CCN(c3ncc(F)c(-n4cccn4)n3)CC2)cn1 [Example 10, [1-(5-fluoro-4-pyrazol-1-yl-pyrimidin-2-yl)-4-piperidyl]-[(3S)-3-(6-methyl-3-pyridyl)isoxazolidin-2-yl]methanone]	4
O=C(C1CCN(c2nc(-c3ncco3)ncc2F)CC1)N1OCC[C@H]1c1cnccn1 [Example 13, [1-(5-fluoro-2-oxazol-2-yl-pyrimidin-4-yl)-4-piperidyl]-[(3S)-3-pyrazin-2-ylisoxazolidin-2-yl]methanone]	27
Cc1ccc([C@@H]2CCON2C(=O)C2CCN(c3nccc(-c4ccnn4C)n3)CC2)cn1 [Example 15, [1-[4-(2-methylpyrazol-3-yl)pyrimidin-2-yl]-4-piperidyl]-[(3S)-3-(6-methyl-3-pyridyl)isoxazolidin-2-yl]methanone]	1
Cc1cnn(-c2cc(N3CCC(C(=O)N4OCC[C@H]4c4ccc(C)nc4)CC3)ncn2)c1 [Example 17, [1-[6-(4-methylpyrazol-1-yl)pyrimidin-4-yl]-4-piperidyl]-[(3S)-3-(6-methyl-3-pyridyl)isoxazolidin-2-yl]methanone]	39
Cc1ccc([C@@H]2CCON2C(=O)C2CCN(c3cc(-c4ccnn4C)ncn3)CC2)cn1 [Example 18, [1-[6-(2-methylpyrazol-3-yl)pyrimidin-4-yl]-4-piperidyl]-[(3S)-3-(6-methyl-3-pyridyl)isoxazolidin-2-yl]methanone]	70
Cc1cn(-c2nc(N3CCC(C(=O)N4OCC[C@H]4c4cnccn4)CC3)ncc2F)c(C)n1 [Example 22, [1-[4-(2,4-dimethylimidazol-1-yl)-5-fluoro-pyrimidin-2-yl]-4-piperidyl]-[(3S)-3-pyrazin-2-ylisoxazolidin-2-yl]methanone]	2
Cc1nccn1-c1ncnc(N2CCC(C(=O)N3OCC[C@H]3c3cnccn3)CC2)n1 [Example 26, (S)-(1-(4-(2-methyl-1H-imidazol-1-yl)-1,3,5-triazin-2-yl)piperidin-4-yl)(3-(pyrazin-2-yl)isoxazolidin-2-yl)methanone]	5
O=C(C1CCN(c2ncc(F)c(-c3cncs3)n2)CC1)N1OCC[C@H]1c1cnccn1 [Example 27, (S)-(1-(5-fluoro-4-(thiazol-5-yl)pyrimidin-2-yl)piperidin-4-yl)(3-(pyrazin-2-yl)isoxazolidin-2-yl)methanone]	1
Cn1nccc1-c1cc(N2CCC(C(=O)N3OCC[C@H]3c3cnccn3)CC2)ncn1 [Example 28, (S)-(1-(6-(1-methyl-1H-pyrazol-5-yl)pyrimidin-4-yl)piperidin-4-yl)(3-(pyrazin-2-yl)isoxazolidin-2-yl)methanone]	43
O=C(C1CCN(c2ncc(F)c(-n3cccn3)n2)CC1)N1OCC[C@H]1c1cnccn1 [Example 32, (S)-(1-(5-fluoro-4-(1H-pyrazol-1-yl)pyrimidin-2-yl)piperidin-4-yl)(3-(pyrazin-2-yl)isoxazolidin-2-yl)methanone]	1
Cc1ccc([C@@H]2CCON2C(=O)C2CCN(c3ncnc(-n4ccnc4C)n3)CC2)cn1 [Example 35, [1-[4-(2-methylimidazol-1-yl)-1,3,5-triazin-2-yl]piperidin-4-yl]-[(3S)-3-(6-methylpyridin-3-yl)-1,2-oxazolidin-2-yl]methanone]	2
Cc1cncc([C@@H]2CCON2C(=O)C2CCN(c3nccc(N4CCOC4=O)n3)CC2)c1 [Example 36, 3-[2-[4-[(3S)-3-(5-methyl-3-pyridyl)isoxazolidine-2-carbonyl]-1-piperidyl]pyrimidin-4-yl]oxazolidin-2-one]	25
Cn1nccc1-c1cc(N2CC[C@@H](C(=O)N3OCC[C@H]3c3cnccn3)C3(CC3)C2)ncn1 [Example 39, [(8R)-5-[6-(2-methylpyrazol-3-yl)pyrimidin-4-yl]-5-azaspiro[2.5]octan-8-yl]-[(3S)-3-pyrazin-2-yl-1,2-oxazolidin-2-yl]methanone]	20
Cc1nc([C@@H]2CCON2C(=O)[C@@H]2CCN(c3cc(-c4ncnn4C)ncn3)CC23CC3)cs1 [Example 41, [(3S)-3-(2-methyl-1,3-thiazol-4-yl)-1,2-oxazolidin-2-yl]-[(8R)-5-[6-(2-methyl-1,2,4-triazol-3-yl)pyrimidin-4-yl]-5-azaspiro[2.5]octan-8-yl]methanone]	44
Cc1ncc([C@@H]2CCON2C(=O)C2CCN(c3cc(-c4ncnn4C)ncn3)CC2)cc1F [Example 49, [(3S)-3-(5-fluoro-6-methylpyridin-3-yl)-1,2-oxazolidin-2-yl]-[1-[6-(2-methyl-1,2,4-triazol-3-yl)pyrimidin-4-yl]piperidin-4-yl]methanone]	15
Cc1cncc([C@@H]2CCON2C(=O)C2CCN(c3nccc(N4CCC5(CC5)C4=O)n3)CC2)c1 [Example 51, 5-[2-[4-[(3S)-3-(5-methylpyridin-3-yl)-1,2-oxazolidine-2-carbonyl]piperidin-1-yl]pyrimidin-4-yl]-5-azaspiro[2.4]heptan-4-one]	26
Cc1nc([C@@H]2CCON2C(=O)C2CCN(c3nccc(N4CCC5(CC5)C4=O)n3)CC2)co1 [Example 54, 5-[2-[4-[(3S)-3-(2-methyl-1,3-oxazol-4-yl)-1,2-oxazolidine-2-carbonyl]piperidin-1-yl]pyrimidin-4-yl]-5-azaspiro[2.4]heptan-4-one]	51
Cc1cnc([C@@H]2CCON2C(=O)C2CCN(c3nccc(N4CCCC4=O)n3)CC2)cn1 [Example 55, 1-[2-[4-[(3S)-3-(5-methylpyrazin-2-yl)-1,2-oxazolidine-2-carbonyl]piperidin-1-yl]pyrimidin-4-yl]pyrrolidin-2-one]	78
O=C(C1CCN(c2nccc(N3CCC(F)(F)C3=O)n2)CC1)N1OCC[C@H]1c1cnccn1 [Example 58, 3,3-difluoro-1-[2-[4-[(3S)-3-pyrazin-2-yl-1,2-oxazolidine-2-carbonyl]piperidin-1-yl]pyrimidin-4-yl]pyrrolidin-2-one]	65
Cc1ncc([C@@H]2CCON2C(=O)C2CCN(c3nccc(N4CCC(C)(C)C4=O)n3)CC2)cc1F [Example 60, 1-[2-[4-[(3S)-3-(5-fluoro-6-methylpyridin-3-yl)-1,2-oxazolidine-2-carbonyl]piperidin-1-yl]pyrimidin-4-yl]-3,3-dimethylpyrrolidin-2-one]	506
Cc1ncc([C@@H]2CCON2C(=O)C2CCN(c3nccc(N4CCC5(CC5)C4=O)n3)CC2)cc1F [Example 61, 5-[2-[4-[(3S)-3-(5-fluoro-6-methylpyridin-3-yl)-1,2-oxazolidine-2-carbonyl]piperidin-1-yl]pyrimidin-4-yl]-5-azaspiro[2.4]heptan-4-one]	32
CN1CCN(c2ccnc(N3CCC(C(=O)N4OCC[C@H]4c4cncc(F)c4)CC3)n2)C1=O [Example 62, 1-[2-[4-[(3S)-3-(5-fluoropyridin-3-yl)-1,2-oxazolidine-2-carbonyl]piperidin-1-yl]pyrimidin-4-yl]-3-methylimidazolidin-2-one]	41
Cc1ccc([C@@H]2CCON2C(=O)[C@@H]2CCN(c3nccc(N4CCOCC4=O)n3)CC23CC3)cn1 [Example 63, 4-[2-[(8R)-8-[(3S)-3-(6-methylpyridin-3-yl)-1,2-oxazolidine-2-carbonyl]-5-azaspiro[2.5]octan-5-yl]pyrimidin-4-yl]morpholin-3-one]	44
Cc1nccn1-c1nc(N2CCC(C(=O)N3OCC[C@H]3c3cncc(F)c3)CC2)ncc1F [Example 64, [1-[5-fluoro-4-(2-methylimidazol-1-yl)pyrimidin-2-yl]piperidin-4-yl]-[(3S)-3-(5-fluoropyridin-3-yl)-1,2-oxazolidin-2-yl]methanone]	1
Cc1ccc([C@@H]2CCON2C(=O)C2CCN(c3nccc(N4CCCC(F)(F)C4=O)n3)CC2)cn1 [Example 66, 3,3-difluoro-1-[2-[4-[(3S)-3-(6-methylpyridin-3-yl)-1,2-oxazolidine-2-carbonyl]piperidin-1-yl]pyrimidin-4-yl]piperidin-2-one]	3440
Cc1ccc([C@@H]2CCON2C(=O)C2CCN(c3nc(-c4ncco4)ncc3F)CC2)cn1 [Example 67, [1-[5-fluoro-2-(1,3-oxazol-2-yl)pyrimidin-4-yl]piperidin-4-yl]-[(3S)-3-(6-methylpyridin-3-yl)-1,2-oxazolidin-2-yl]methanone]	135
